Experiments:
Assay type in all cases: cell-based
Escherichia coli A261 = test: MIC, plate test (Table 1); conditions: 37°C, 24 hours, read-out: Minimum inhibitory concentration (MIC)
Experimental: (§1) The minimum inhibitory concentration (MIC) was determined in the plate test on a complete nutrient base of the following composition: 10 g of proteose-peptone, 10 g of veal infusion, 2 g of dextrose, 3 g of sodium chloride, 2 g of disodium phosphate, 1 g of sodium acetate, 0.01 g of adenine sulphate, 0.01 g of guanine hydrochloride, 0.01 g of uracil, 0.01 g. of xantin, 12 g of agar-agar and 1 liter of water.
(§2) The incubation temperature was 37°C and the incubation time was 24 hours.

Escherichia coli C165 = test: MIC, plate test (Table 1); conditions: 37°C, 24 hours, read-out: Minimum inhibitory concentration (MIC)
Experimental: as §1, §2

Klebsiella 63 = test: MIC, plate test (Table 1); conditions: 37°C, 24 hours, read-out: Minimum inhibitory concentration (MIC)
Experimental: as §1, §2

Klebsiella 8085 = test: MIC, plate test (Table 1); conditions: 37°C, 24 hours, read-out: Minimum inhibitory concentration (MIC)
Experimental: as §1, §2

Proteus vulgaris 1017 [1] = test: MIC, plate test (Table 1); conditions: 37°C, 24 hours, read-out: Minimum inhibitory concentration (MIC)
Experimental: as §1, §2

Pseudomonas aeruginosa B [2] = test: MIC, plate test (Table 1); conditions: 37°C, 24 hours, read-out: Minimum inhibitory concentration (MIC)
Experimental: as §1, §2

Pseudomonas aeruginosa w [3] = test: MIC, plate test (Table 1); conditions: 37°C, 24 hours, read-out: Minimum inhibitory concentration (MIC)
Experimental: as §1, §2

Salmonella species [4] = test: MIC, plate test (Table 1); conditions: 37°C, 24 hours, read-out: Minimum inhibitory concentration (MIC)
Experimental: as §1, §2

[5] = system: Staphylococcus aureus 133; test: MIC, plate test (Table 1); conditions: 37°C, 24 hours, read-out: Minimum inhibitory concentration (MIC)
Experimental: as §1, §2

Streptococcus pyogenes = test: MIC, plate test (Table 1); conditions: with serum, 37°C, 24 hours, read-out: Minimum inhibitory concentration (MIC)
Experimental: as §1, §2

Mycoplasma bovirhinis = test: MIC, series dilution test, PPLO-medium (Table 1); conditions: 37°C, 18, 24 and 48 hours, read-out: Minimum inhibitory concentration (MIC)
Experimental: (§3) The mycoplasmae were tested in the series dilution test (PPLO-medium) at 37°C, with observations after 18, 24 and 48 hours.

Mycoplasma gallisepticum = test: MIC, series dilution test, PPLO-medium (Table 1); conditions: Mycoplasmoides gallisepticum, 37°C, 18, 24 and 48 hours, read-out: Minimum inhibitory concentration (MIC)
Experimental: as §3

Mycoplasma granularum = test: MIC, series dilution test, PPLO-medium (Table 1); conditions: Acholeplasma granularum, 37°C, 18, 24 and 48 hours, read-out: Minimum inhibitory concentration (MIC)
Experimental: as §3

[6] = system: Mycobacterium tuberculosis; test: MIC, series dilution test, Jenssen egg medium; conditions: 37°C, read-out: minimum inhibitory concentration
Experimental: The compounds of Examples 12 and 13 show minimum inhibitory concentrations of 32 γ/ml of nutrient medium in the series dilution test, Jenssen egg medium, 37°C, against Mycobacterium tuberculosis.

Escherichia coli A 261 = test: Turbidity test in Mueller-Hinton nutrient solution; conditions: 100 γ/ml, 24 hours, 37°C
Escherichia coli 14 = test: Turbidity test in Mueller-Hinton nutrient solution; conditions: 100 γ/ml, 24 hours, 37°C
Escherichia coli C 165 = test: Turbidity test in Mueller-Hinton nutrient solution; conditions: 100 γ/ml, 24 hours, 37°C
Proteus vulgaris 1017 [7] = test: Turbidity test in Mueller-Hinton nutrient solution; conditions: 100 γ/ml, 24 hours, 37°C
Klebsiella K 10 = test: Turbidity test in Mueller-Hinton nutrient solution; conditions: 100 γ/ml, 24 hours, 37°C
Klebsiella K 63 = test: Turbidity test in Mueller-Hinton nutrient solution; conditions: 100 γ/ml, 24 hours, 37°C
Salmonella species [8] = test: Turbidity test in Mueller-Hinton nutrient solution; conditions: 100 γ/ml, 24 hours, 37°C
Experimental: (§4) 100 γ/ml of the compounds according to the invention are dissolved in Mueller-Hinton nutrient solution, with addition of 0.1% of glucose. The nutrient solution contains […] microbes per ml. The mixture is incubated in glass test tubes for 24 hours at 37°C and after this time the degree of turbidity is determined.

Shigella species = test: Turbidity test in Mueller-Hinton nutrient solution; conditions: 100 γ/ml, 24 hours, 37°C
Experimental: as §4

Enterobacter species = test: Turbidity test in Mueller-Hinton nutrient solution; conditions: 100 γ/ml, 24 hours, 37°C
[9] = system: Neisseria catarrhalis species; test: Turbidity test in Mueller-Hinton nutrient solution; conditions: 100 γ/ml, 24 hours, 37°C
[10] = system: Diplococcus pneumoniae species; test: Turbidity test in Mueller-Hinton nutrient solution; conditions: 100 γ/ml, 24 hours, 37°C
Streptococcus pyogenes W = test: Turbidity test in Mueller-Hinton nutrient solution; conditions: 100 γ/ml, 24 hours, 37°C
Enterococcus species = test: Turbidity test in Mueller-Hinton nutrient solution; conditions: 100 γ/ml, 24 hours, 37°C
Lactobacillus species = test: Turbidity test in Mueller-Hinton nutrient solution; conditions: 100 γ/ml, 24 hours, 37°C
Serratia species = test: Turbidity test in Mueller-Hinton nutrient solution; conditions: 100 γ/ml, 24 hours, 37°C
[11] = system: Proteus indole-negative, species; test: Turbidity test in Mueller-Hinton nutrient solution; conditions: 100 γ/ml, 24 hours, 37°C
[12] = system: Proteus indole-positive, species; test: Turbidity test in Mueller-Hinton nutrient solution; conditions: 100 γ/ml, 24 hours, 37°C
[13] = system: Pasteurella pseudotuberculosis; conditions: 100 γ/ml, 24 hours, 37°C
Brucella species = conditions: 100 γ/ml, 24 hours, 37°C
[14] = system: Haemophilus influenzae 281; test: Turbidity test in Mueller-Hinton nutrient solution; conditions: 100 γ/ml, 24 hours, 37°C
[15] = system: Bordetella bronchiseptica; test: Turbidity test in Mueller-Hinton nutrient solution; conditions: 100 γ/ml, 24 hours, 37°C
Bacteroides species = test: Turbidity test in Mueller-Hinton nutrient solution; conditions: 100 γ/ml, 24 hours, 37°C
[16] = system: Staphylococcus aureus 133; test: Turbidity test in Mueller-Hinton nutrient solution; conditions: 100 γ/ml, 24 hours, 37°C
Pseudomonas aeruginosa w [17] = test: Turbidity test in Mueller-Hinton nutrient solution; conditions: 100 γ/ml, 24 hours, 37°C
Pseudomonas aeruginosa B [18] = test: Turbidity test in Mueller-Hinton nutrient solution; conditions: 100 γ/ml, 24 hours, 37°C
[19] = system: Aeromonas hydrophila species; test: Turbidity test in Mueller-Hinton nutrient solution; conditions: 100 γ/ml, 24 hours, 37°C
[20] = system: Corynebacterium diphtheriae gravis; test: Turbidity test in Mueller-Hinton nutrient solution; conditions: 100 γ/ml, 24 hours, 37°C
[21] = system: Corynebacterium pyogenes M; test: Turbidity test in Mueller-Hinton nutrient solution; conditions: 100 γ/ml, 24 hours, 37°C
Clostridium botulinium = system: Clostridium botulinium
Clostridium tetani = conditions: 100 γ/ml, 24 hours, 37°C
Borrelia species = test: Turbidity test in Mueller-Hinton nutrient solution; conditions: 100 γ/ml, 24 hours, 37°C

CC(=O)Nc1n[n+]([O-])c2ccccc2[n+]1[O-] [Example 2, 3-(N-acetylamino)-benzo-1,2,4-triazine-1,4-di-N-oxide]
1 µg/mL: MIC (Salmonella species [4]) | MIC (Streptococcus pyogenes)
8 µg/mL: MIC (Pseudomonas aeruginosa w [3])
4 µg/mL: MIC (Pseudomonas aeruginosa B [2])
< 0.125 µg/mL: MIC (Mycoplasma bovirhinis) | MIC (Mycoplasma gallisepticum) | MIC (Mycoplasma granularum)
< 0.5 µg/mL: MIC (Escherichia coli A261) | MIC (Escherichia coli C165) | MIC (Klebsiella 63) | MIC (Klebsiella 8085) | MIC (Proteus vulgaris 1017 [1]) | MIC [5]

CCC(=O)Nc1n[n+]([O-])c2ccccc2[n+]1[O-] [Example 3, 3-(N-propionylamino)-benzo-1,2,4-triazine-1,4-di-N-oxide]
4 µg/mL: MIC (Escherichia coli A261) | MIC (Escherichia coli C165) | MIC (Klebsiella 63) | MIC (Salmonella species [4])
< 0.125 µg/mL: MIC (Mycoplasma bovirhinis) | MIC (Mycoplasma gallisepticum) | MIC (Mycoplasma granularum)
128 µg/mL: MIC (Pseudomonas aeruginosa B [2]) | MIC (Pseudomonas aeruginosa w [3]) | MIC (Streptococcus pyogenes)
1 µg/mL: MIC (Klebsiella 8085) | MIC (Proteus vulgaris 1017 [1]) | MIC [5]

CC(=O)CC(=O)Nc1n[n+]([O-])c2ccccc2[n+]1[O-] [Example 4, 3-(N-acetoacetylamino)-benzo-1,2,4-triazine-1,4-di-N-oxide]
4 µg/mL: MIC (Klebsiella 8085)
128 µg/mL: MIC (Klebsiella 63) | MIC (Pseudomonas aeruginosa B [2]) | MIC (Pseudomonas aeruginosa w [3])
8 µg/mL: MIC (Escherichia coli A261) | MIC (Escherichia coli C165) | MIC (Proteus vulgaris 1017 [1]) | MIC (Salmonella species [4]) | MIC [5] | MIC (Streptococcus pyogenes)
32 µg/mL: MIC [6]

CCCCCCCCCCCCCCCCCC(=O)Nc1n[n+]([O-])c2ccccc2[n+]1[O-] [Example 6]
8 µg/mL: MIC (Klebsiella 8085)
32 µg/mL: MIC [6]
128 µg/mL: MIC (Escherichia coli A261) | MIC (Escherichia coli C165) | MIC (Klebsiella 63) | MIC (Proteus vulgaris 1017 [1]) | MIC (Pseudomonas aeruginosa B [2]) | MIC (Pseudomonas aeruginosa w [3]) | MIC (Salmonella species [4]) | MIC [5] | MIC (Streptococcus pyogenes)

CNC(=O)Nc1n[n+]([O-])c2ccccc2[n+]1[O-] [Example 7, 1'-methyl-3'-[1,4-dioxo-benzo-1,2,4-triazin-3-yl]-urea]
128 µg/mL: MIC (Pseudomonas aeruginosa B [2]) | MIC (Pseudomonas aeruginosa w [3])
8 µg/mL: MIC (Klebsiella 63)
1 µg/mL: MIC (Klebsiella 8085) | MIC (Proteus vulgaris 1017 [1]) | MIC [5] | MIC (Streptococcus pyogenes)
4 µg/mL: MIC (Escherichia coli A261) | MIC (Escherichia coli C165) | MIC (Salmonella species [4])

CNC(=O)Nc1n[n+]([O-])c2ccccc2[n+]1[O-] [Example 12, 1'-[1,4-dioxo-benzo-1,2,4-triazin-3-yl]-3'-methylurea]
32 µg/mL: MIC [6]
remained free of turbidity: turbidity after incubation (Escherichia coli A 261) | turbidity after incubation (Escherichia coli 14) | turbidity after incubation (Escherichia coli C 165) | turbidity after incubation (Proteus vulgaris 1017 [7]) | turbidity after incubation (Klebsiella K 10) | turbidity after incubation (Klebsiella K 63) | turbidity after incubation (Salmonella species [8]) | turbidity after incubation (Shigella species) | turbidity after incubation (Enterobacter species) | turbidity after incubation [9] | turbidity after incubation [10] | turbidity after incubation (Streptococcus pyogenes W) | turbidity after incubation (Enterococcus species) | turbidity after incubation (Lactobacillus species) | turbidity after incubation (Serratia species) | turbidity after incubation [11] | turbidity after incubation [12] | turbidity after incubation [13] | turbidity after incubation (Brucella species) | turbidity after incubation [14] | turbidity after incubation [15] | turbidity after incubation (Bacteroides species) | turbidity after incubation [16] | turbidity after incubation (Pseudomonas aeruginosa w [17]) | turbidity after incubation (Pseudomonas aeruginosa B [18]) | turbidity after incubation [19] | turbidity after incubation [20] | turbidity after incubation [21] | turbidity after incubation (Clostridium botulinium) | turbidity after incubation (Clostridium tetani) | turbidity after incubation (Borrelia species)

O=C(NCCO)Nc1n[n+]([O-])c2ccccc2[n+]1[O-] [Example 14, 1'-[1,4-dioxo-benzo-1,2,4-triazin-3-yl]-3'-[β-hydroxy-ethyl]-urea]
remained free of turbidity: turbidity after incubation (Escherichia coli A 261) | turbidity after incubation (Escherichia coli 14) | turbidity after incubation (Escherichia coli C 165) | turbidity after incubation (Proteus vulgaris 1017 [7]) | turbidity after incubation (Klebsiella K 10) | turbidity after incubation (Klebsiella K 63) | turbidity after incubation (Salmonella species [8]) | turbidity after incubation (Shigella species) | turbidity after incubation (Enterobacter species) | turbidity after incubation [9] | turbidity after incubation [10] | turbidity after incubation (Streptococcus pyogenes W) | turbidity after incubation (Enterococcus species) | turbidity after incubation (Lactobacillus species) | turbidity after incubation (Serratia species) | turbidity after incubation [11] | turbidity after incubation [12] | turbidity after incubation [13] | turbidity after incubation (Brucella species) | turbidity after incubation [14] | turbidity after incubation [15] | turbidity after incubation (Bacteroides species) | turbidity after incubation [16] | turbidity after incubation (Pseudomonas aeruginosa w [17]) | turbidity after incubation (Pseudomonas aeruginosa B [18]) | turbidity after incubation [19] | turbidity after incubation [20] | turbidity after incubation [21] | turbidity after incubation (Clostridium botulinium) | turbidity after incubation (Clostridium tetani) | turbidity after incubation (Borrelia species)

Reference: patent US3957779A, “Benzo-1,2,4-triazines” (Bayer Aktiengesellschaft, priority 1972, dated 1976)
